Drawing on US4136192A, “4-Hydroxy-3-nitro (cyano) coumarins” (Beecham Group Limited, priority 1975, dated 1979), this text covers ED50 and IC50 for 19 compounds.

One experiment relates to PCA response. The experiment is described as follows: Passive Cutaneous Anaphylaxis (rat PCA). The experiment is classed as in vivo. The conditions noted are these: iv, i.v. just before ovalbumin challenge, male Wistar rats. As to the method:
Serum containing heat labile homocytotropic antibody was raised in rats to crystallized ovalbumin XOA by the method of Mota (I. Mota, Immunology, 7, 681 (1964)) using Bordettela pertussis vaccine as adjuvant.
Passive cutaneous anaphylaxis (PCA) was carried out by a method based on that of Ovary and Bier (A. Ovary and O. G. Bier, Proc. Soc. Exp. Biol. Med 81, 584, (1952)) as modified by Goose and Blair.
Male Wistar rats of 250-300 g were given 0.1 ml of each of six twofold serial dilutions of pooled antiserum in 0.9% saline injected intradermally into separate sites on their shaved backs. Later (72 hr) the animals were challenged by intravenous injection of 0.3 ml of a 1% solution of ovalbumin in an isotonic solution of saline buffered with 0.5M, pH 7.2, Sorenson Buffer (PBS), mixed with 0.2 ml of a 5% solution of Pontamine Sky Blue (6BX C.I. 24410, Raymond A. Lamb, London) in isotonic saline. The rats were killed after 20 min and the diameter of the blue wheals at the antibody injection sites was measured on the outer surface of the skin. The starting dilution of the serum was adjusted so that there was no response, after challenge, at the injection site of the highest dilution and a maximum response at the lowest dilutions. Typically six twofold serial dilutions of the serum from 1/4 to 1/128 were used.
Compounds were tested for their ability to reduce the diameter of the wheels at those intradermal sites which in control animals gave less than maximum response. Each dose of the compound was administered intravenously to six rats in isotonic saline, adjusted to pH7 with sodium bicarbonate if necessary (2ml/kg body weight) just before intravenous challenge with ovalbumin. Control groups of six animals were given the same volume of carrier fluid at the same time.
The results were calculated as follows. % inhibition of PCA=100 (1 - a/b) where a=the sum of the diameters of the wheals produced in the test animal at the sites of antibody dilutions as used in control groups and b=the mean sum of the diameters of the wheals produced in the control group of animals at those antibody sites where at least five out of six of the animals gave less than maximum response. A typical variation in the control group of animals was SEN±6%.
The dose of the compound required to inhibit the PCA response by 50% was obtained from the log dose-response curve.

Experiment [1] has as its system slow reacting substance of anaphylaxis (SRS-A). The experiment is described as follows: SRS-A antagonism on isolated guinea pig ileum. Also noted: species or system guinea pig ileum (SRS-A from rat). The note with it: rat SRS-A. The text has this: The compounds have been evaluated as direct antagonists of slow reacting substance of anaphylaxis (SRS-A) by assay using the isolated guinea pig ileum.
SRS-A rat was obtained from the peritoneal cavity of the rat after passive peritoneal anaphylaxis by a method based on that of R. P. Orange, D. J. Stechschulte and K. F. Austen, J. Immunology, 105 1087 (1970) as described by B. A. Spicer, J. W. Ross and H. Smith, Clin. exp. Immunol. 1975, 21, 419. The sensitizing serum containing reaginic antibody was produced in rats as described by B. A. Spicer, et. al. ibid.
2 ml of a 1 in 5 dilution of the sensitizing serum was injected by the peritoneal route into recipient rats and after 2 hours, 5 ml of tyrode solution containing 0.4 mg/ml ovalbumin (Sigma Grade III) and 50 μg/ml heparin was injected by the same route. Five minutes after challenge the rats were stunned and bled and the peritoneal fluids collected into polycarbonate tubes in ice. After centrifugation at 150 g for 5 minutes the supernatants were combined, heated in a boiling water bath for 5 minutes, cooled and stored at -20° C. The combined peritioneal fluids contained SRS-A and were used in the antagonism studies.
The SRS-A assays were carried out on isolated strips of guinea pig ileum in tyrode solution containing atropine 5 × 10^-7 M and mepyramine 10^-6 M as described by W. E. Brocklehurst, J. Physiology, 151, 416 (1960).
The activity of the antagonists was determined by their ability to reduce submaximal responses induced by SRS-A. The antagonists were added to a 4 ml bath in 0.1 ml volumes in aqueous solution half a minute before the addition of SRS-A and were present during induced contraction. Two or three concentrations of antagonists were used and the percentage inhibition of the SRS-A response plotted against the bath concentration of antagonist. The line of best fit was drawn and the concentration to cause 50% inhibition IC50 read graphically.

The mark [2] stands for this setting: read-out: Rat PCA: Dose given i.v. to effect a 50% inhibition of the PCA response.
[3] abbreviates: as first table, unit inferred, isolated guinea pig ileum, read-out: SRS-A antagonism on Guinea Pig Ileum: Approximate concentration to give inhibition of a than maximal response to SRS-A.
Where [4] appears, read: isolated guinea pig ileum strips, tyrode with atropine and mepyramine, 50% inhibition per method, read-out: SRS-A antagonism on Guinea Pig Ileum: Approximate concentration to give inhibition of a than maximal response to SRS-A.
The mark [5] stands for this setting: second results table, read-out: Rat PCA: Dose given i.v. to effect a 50% inhibition of PCA response.
Setting [6] is: second results table, unit inferred, isolated guinea pig ileum, read-out: SRS-A antagonism on Guinea Pig ileum: Approximate concentration to give 50% inhibition of a less than maximal response to SRS-A.

Read-outs that look alike come from different tables or passages of the source. Some results are limits rather than exact numbers.

Regarding `O=c1oc2cc(OCCc3ccc(F)cc3)ccc2c(O)c1[N+](=O)[O-]` [Example 117], in the experiment on PCA response (setting [2]), the ED50 was determined as 1 mg/kg.

For `CCCc1c(OCCOc2ccc3c(O)c([N+](=O)[O-])c(=O)oc3c2)ccc(C(C)=O)c1O` [Example 127, 7-(2-[4-Acetyl-3-hydroxy-2-n-propylphenoxy]ethoxy)-4-hydroxy-3-nitrocoumarin], in the experiment on PCA response (setting [2]), the ED50 is roughly 2 mg/kg. With `CCCc1cc(C(C)=O)ccc1OCC(O)COc1ccc2c(O)c([N+](=O)[O-])c(=O)oc2c1` (centres unmarked) [Example 142, 7-(3-[4-Acetyl-2-n-propylphenoxy]-2-hydroxypropoxy)-4-hydroxy-3-nitrocoumarin], in the experiment on PCA response (setting [2]), the ED50 is less than 1 mg/kg. On to `CCc1cc(C(C)=O)c(O)cc1OCC(O)COc1ccc2c(O)c([N+](=O)[O-])c(=O)oc2c1` (centres unmarked) [Example 145, 7-(3-[4-Acetyl-2-ethyl-5-hydroxy-phenoxy]-2-hydroxy-propoxy)-4-hydroxy-3-nitrocoumarin], for which the ED50 in the experiment with PCA response (setting [2]) was 2 mg/kg. For `CCCc1c(OCC(O)COc2ccc3c(O)c([N+](=O)[O-])c(=O)oc3c2C)ccc(C(C)=O)c1O` (centres unmarked) [Example 147, 7-(3-[4-Acetyl-3-hydroxy-2-n-propyl-phenoxy]-2-hydroxy-propoxy)-4-hydroxy-8-methyl-3-nitro-coumarin], the ED50 in the experiment with PCA response (setting [2]) was less than 2 mg/kg. In experiment [1] (setting [3]), the IC50 stood at 0.01 µM. As to `CCCc1c(OCC(O)COc2ccc3c(O)c([N+](=O)[O-])c(=O)oc3c2CCC)ccc(C(C)=O)c1O` (centres unmarked) [Example 148, 7-(3-[4-Acetyl-3-hydroxy-2-n-propyl-phenoxy]-2-hydroxy-propoxy)-4-hydroxy-3-nitro-8-n-propyl-coumarin], the ED50 in the experiment on PCA response (setting [2]) was less than 1 mg/kg. In addition, the IC50 in experiment [1] (setting [4]) is 0.1 µM. With `CCCc1c(OCC(O)COc2ccc3c(O)c([N+](=O)[O-])c(=O)oc3c2)ccc(C(=O)CC)c1O` (centres unmarked) [Example 149], the ED50 with PCA response (setting [2]) was 2 mg/kg. `O=c1oc2cc(OCCCCCCOc3ccccc3)ccc2c(O)c1[N+](=O)[O-]` [Example 154, 4-Hydroxy-3-nitro-7-(6-phenoxyhexoxy) coumarin]: the ED50 with PCA response (setting [2]) lay within 1 to 2 mg/kg. Also, the IC50 in experiment [1] (setting [4]) turned out to be 10 µM. For the compound `Cc1ccccc1OCCCOc1ccc2c(O)c([N+](=O)[O-])c(=O)oc2c1` [Example 155, 4-Hydroxy-7-(3-[2-methylphenoxy]propoxy)-3-nitrocoumarin], the ED50 with PCA response (setting [2]) is 1 to 2 mg/kg. The IC50 in experiment [1] (setting [4]) stood at 0.1 µM.

Consider `CCCc1cc(F)ccc1OCC(O)COc1ccc2c(O)c([N+](=O)[O-])c(=O)oc2c1` (centres unmarked) [Example 164, 7-(3-[4-Fluoro-2-hydroxypropoxy)-4-hydroxy-3-nitro-coumarin], for which the ED50 in the experiment with PCA response (setting [2]) was determined as 1 mg/kg. The IC50 in experiment [1] (setting [3]) came to 0.1 µM.

Take `CCCc1c(O)c(C(C)=O)cc([N+](=O)[O-])c1OCCOc1ccc2c(O)c([N+](=O)[O-])c(=O)oc2c1` [Example 165, 7-[2-(4-Acetyl-3-hydroxy-6-nitro-2-n-propylphenoxy)ethoxy]-4-hydroxy-3-nitrocoumarin]: the ED50 with PCA response (setting [2]) was 1 mg/kg. On to `CCCc1c(O)c(C(C)=O)cc([N+](=O)[O-])c1OCC(O)COc1ccc2c(O)c([N+](=O)[O-])c(=O)oc2c1C` (centres unmarked) [Example 166, 7-[3-(4-Acetyl-3-hydroxy-6-nitro-2-n-propylphenoxy)-2-hydroxypropoxy]-4-hydroxy-8-methyl-3-nitrocoumarin], for which, in the experiment on PCA response (setting [2]), the ED50 is less than 1 mg/kg. For the same compound, the IC50 in experiment [1] (setting [3]) was determined as 0.1 µM. Turning to `O=C1c2ccc(OCCCOc3ccccc3)cc2C(=O)C1[N+](=O)[O-]` (centres unmarked) [Example 182, 2-Nitro-5-(3-phenoxypropoxy)indan-1,3-dione], in the experiment on PCA response (setting [5]), the ED50 is less than 1 mg/kg. Further, the IC50 in experiment [1] (setting [6]) was 0.1 µM.

For `O=C1c2ccc(OCCCc3ccccc3)cc2C(=O)C1[N+](=O)[O-]` (centres unmarked) [Example 183, 2-Nitro-5-(3-phenylpropoxy)indan-1,3-dione], in the experiment with PCA response (setting [5]), the ED50 was less than 1 mg/kg.

On to `Cc1cc(C)c(C)c(OCCCOc2ccc3c(c2)C(=O)C([N+](=O)[O-])C3=O)c1` (centres unmarked) [Example 184, 2-Nitro-5-[3-(2,3,5-trimethylphenoxy)propoxy]indan-1,3-dione], for which, in the experiment on PCA response (setting [5]), the ED50 came to 1 mg/kg. Besides, the IC50 in experiment [1] (setting [6]) was determined as 1 µM. For the compound `Cc1cc2c(cc1OCCCOc1ccccc1)C(=O)C([N+](=O)[O-])C2=O` (centres unmarked) [Example 185, 5-Methyl-2-nitro-6-(3-phenoxypropoxy)indan-1,3-dione], the IC50 in experiment [1] (setting [6]) worked out at 1 µM. `N#CC1C(=O)c2ccc(OCCCOc3ccccc3)cc2C1=O` (centres unmarked) [Example 188, 2-Cyano-5-(3-phenoxypropoxy)indan-1,3-dione]: the ED50 in the experiment on PCA response (setting [5]) was greater than 2 mg/kg. The IC50 in experiment [1] (setting [6]) amounted to 1 µM. On to `N#CC1C(=O)c2ccc(OCCc3ccccc3)cc2C1=O` (centres unmarked) [Example 189, 2-Cyano-5-(2-phenylethoxy)indan-1,3-dione], for which, in experiment [1] (setting [6]), the IC50 was 1 µM.

Take `N#Cc1c(O)c2ccc(OCCCOc3ccccc3)cc2oc1=O` [Example 204, 3-Cyano-4-hydroxy-7-(3-phenoxypropoxy) coumarin]: the ED50 in the experiment with PCA response (setting [5]) came to 2 mg/kg. Also, the IC50 in experiment [1] (setting [6]) was 1 µM.
